For one assay, the system named is HAP1 MTAP-intact. The assay is described as follows: SDMA in-cell western assay, HAP1 MTAP-intact cell line. The assay is classed as cell-based. Particulars: Homo sapiens. The method in brief: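 Cells from two matched HAP1 lines, MTAP-null and MTAP-expressing at endogenous levels, are treated with compound. SDMA is then quantified by in-cell western and an IC50 is calculated for each line.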

For assay [1], the target named is T1, PRMT5 (Homo sapiens, UniProt O14744).
T1 construct: purchased Viva (custom protein)
Kind of assay: PRMT5 IC50 assay with no cofactor. The assay is classed as biochemical. The method in brief:
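Human PRMT5 inhibition, IC50 in μM; cofactor varied (SAM / MTA / none).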

A further assay relates to HAP1 MTAP-deleted. Kind of assay: SDMA in-cell western assay, HAP1 MTAP-deleted cell line. Particulars: for IC50: Homo sapiens, HAP1 MTAP-deleted cell line; for MTAP Intact/Deleted Ratio: IC50 ratio HAP1 MTAP-intact / HAP1 MTAP-deleted. In kind it is cell-based. An outline of the steps:
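MTAP-null HAP1 cells, the deleted member of an isogenic pair with endogenously MTAP-expressing HAP1, are treated with compound. SDMA is then quantified by in-cell western and an IC50 is calculated.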

Assay [2] has as its target T1, PRMT5. Kind of assay: PRMT5 IC50 assay in the presence of SAM as cofactor. In kind it is biochemical. The method in brief: (§1)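 Each compound is tested on PRMT5 in the presence of SAM, of MTA, and without any cofactor. Ki values are then back-calculated using fixed factors of 1.5 (SAM) and 13.5 (MTA), and the two Ki values are compared as a ratio.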
Assay [3] deals with T1, PRMT5. Kind of assay: PRMT5 IC50 assay in the presence of MTA as cofactor. Particulars: for IC50: PRMT5, MTA as cofactor. The assay is classed as biochemical. The method in brief: as §1
The mark [4] stands for this setting: ratio between the Ki in the presence of SAM and the Ki in the presence of MTA.
[5] abbreviates: ratio between Ki in the presence of SAM and Ki in the presence of MTA.

Eleven compounds from US11986471B2, “Compounds and methods of use” (Tango Therapeutics, Inc., priority 2018, dated 2024) can be followed below.

Molecules are shown by their SMILES.

T1 sequence (O14744 whole entry): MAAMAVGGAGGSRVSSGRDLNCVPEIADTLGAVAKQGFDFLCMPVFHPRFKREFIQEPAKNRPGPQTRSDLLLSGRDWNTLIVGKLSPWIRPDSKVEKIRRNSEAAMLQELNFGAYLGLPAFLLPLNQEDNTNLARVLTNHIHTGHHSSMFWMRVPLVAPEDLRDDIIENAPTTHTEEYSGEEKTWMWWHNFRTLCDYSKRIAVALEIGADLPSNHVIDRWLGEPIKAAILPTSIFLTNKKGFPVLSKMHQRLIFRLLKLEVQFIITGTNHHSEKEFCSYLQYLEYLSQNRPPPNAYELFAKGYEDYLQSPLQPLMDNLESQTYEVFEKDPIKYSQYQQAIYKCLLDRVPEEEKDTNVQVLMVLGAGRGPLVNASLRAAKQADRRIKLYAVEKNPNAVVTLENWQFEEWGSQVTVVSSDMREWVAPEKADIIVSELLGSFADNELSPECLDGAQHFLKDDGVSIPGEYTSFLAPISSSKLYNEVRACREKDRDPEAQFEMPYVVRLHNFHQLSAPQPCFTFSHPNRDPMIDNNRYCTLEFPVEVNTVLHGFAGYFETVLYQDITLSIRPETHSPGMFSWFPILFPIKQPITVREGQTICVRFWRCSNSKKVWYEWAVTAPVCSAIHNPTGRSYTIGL
T1 sequence (Q9BQA1 whole entry partner): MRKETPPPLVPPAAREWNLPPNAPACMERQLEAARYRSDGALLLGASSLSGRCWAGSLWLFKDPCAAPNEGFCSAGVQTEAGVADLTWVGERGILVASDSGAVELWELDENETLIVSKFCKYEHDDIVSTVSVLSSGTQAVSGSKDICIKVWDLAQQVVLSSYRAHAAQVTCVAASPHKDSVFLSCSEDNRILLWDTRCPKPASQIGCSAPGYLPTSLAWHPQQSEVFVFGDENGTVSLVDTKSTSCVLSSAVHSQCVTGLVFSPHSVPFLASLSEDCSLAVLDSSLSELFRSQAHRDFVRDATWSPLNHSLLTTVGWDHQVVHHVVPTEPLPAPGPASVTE

In general, IC50 refers to the midpoint of a concentration-inhibition curve. With `CC(C)C(=O)N1CCN(c2cc(C(=O)NC[C@H](O)CN3CCc4cc(OCc5cnco5)ccc4C3)cc(NC3CCC3)n2)CC1` [Compound 481, (S)-2-(cyclobutylamino)-N-(2-hydroxy-3-(6-(oxazol-5-ylmethoxy)-3,4-dihydroisoquinolin-2(1H)-yl)propyl)-6-(4-isobutyrylpiperazin-1-yl)isonicotinamide], the IC50 in the assay on HAP1 MTAP-intact was less than 1000 nM; on PRMT5 [1] it was 500 to 5000 nM; with HAP1 MTAP-deleted, less than 1000 nM; on PRMT5 [2], 50 to 500 nM; on PRMT5 [3], 50 to 500 nM. Moreover, in the assay on HAP1 MTAP-deleted, the “MTAP Intact/Deleted Ratio” value is “C* (an IC50 ratio of less than 3 fold between the IC50 in the HAP1 MTAP-intact cell line and the HAP1 MTAP-deleted cell line)”. Also, the “SAM/MTA Ratio” value on PRMT5 [3] (setting [4]) is “A (a Ki ratio greater than or equal to 10 fold between the Ki in the presence of SAM and the Ki in the presence of MTA)”.

Turning to `Cc1ncoc1COc1ccc2c(c1C)CCN(C[C@@H](O)CNC(=O)c1cc(CC(C)C)nc(NC3CCC3)c1)C2` [Compound 504, 2-(cyclobutylamino)-N-[(2S)-2-hydroxy-3-{5-methyl-6-[(4-methyl-1,3-oxazol-5-yl)methoxy]-1,2,3,4-trihydroisoquinolin-2-yl}propyl]-6-(2-methylpropyl)pyridine-4-carboxamide], the IC50 is no less than 10000 nM in the assay on HAP1 MTAP-intact; no less than 5000 nM against PRMT5 [1]; no less than 10000 nM in the assay on HAP1 MTAP-deleted; 50 to 500 nM on PRMT5 [2]; 50 to 500 nM on PRMT5 [3]. Also, the “MTAP Intact/Deleted Ratio” value with HAP1 MTAP-deleted was “C* (an IC50 ratio of less than 3 fold between the IC50 in the HAP1 MTAP-intact cell line and the HAP1 MTAP-deleted cell line)”. The “SAM/MTA Ratio” value at PRMT5 [3] (setting [4]) is “A (a Ki ratio greater than or equal to 10 fold between the Ki in the presence of SAM and the Ki in the presence of MTA)”.

Regarding `O=C(NC[C@H](O)CN1CCc2cc(OCc3cnco3)ccc2C1)c1ccnc(Nc2cccnc2)c1` [Compound 399, (S)—N-(2-hydroxy-3-(6-(oxazol-5-ylmethoxy)-3N-dihydroisoquinolin-2(1H)-yl)propyl)-2-(pyridin-3-ylamino)isonicotinamide], the concentration for half-maximal inhibition (IC50) in the assay on HAP1 MTAP-intact was 1000 to 10000 nM; at PRMT5 [1] (read-out: No Co-factor IC50), no less than 5000 nM; in the assay with HAP1 MTAP-deleted, less than 1000 nM; at PRMT5 [2] it was 500 to 5000 nM; at PRMT5 [3], 50 to 500 nM. The “MTAP Intact/Deleted Ratio” value in the assay on HAP1 MTAP-deleted is “B* (an IC50 ratio greater than or equal to 3 fold but lower than 10 fold between the IC50 in the HAP1 MTAP-intact cell line and the HAP1 MTAP-deleted cell line)”. Moreover, the “SAM/MTA Ratio” value at PRMT5 [3] (setting [5]) is “A (a Ki ratio greater than or equal to 10 fold between the Ki in the presence of SAM and the Ki in the presence of MTA)”.

Take `Cc1c(OCc2cnco2)ccc2c1CCN(C[C@@H](O)CNC(=O)c1cc(NC3CCC3)ncn1)C2` [Compound 376, 6-(cyclobutylamino)-N-[(2S)-2-hydroxy-3-{5-methyl-6-[(1,3-oxazol-5-yl)methoxy]-1,2,3,4-tetrahydroisoquinolin-2-yl}propyl]pyrimidine-4-carboxamide]: the IC50 was no less than 10000 nM in the assay with HAP1 MTAP-intact; no less than 5000 nM at PRMT5 [1] (read-out: No Co-factor IC50); no less than 10000 nM in the assay with HAP1 MTAP-deleted; 500 to 5000 nM at PRMT5 [2]; 500 to 5000 nM at PRMT5 [3]. Besides, the “MTAP Intact/Deleted Ratio” value in the assay on HAP1 MTAP-deleted is “C* (an IC50 ratio of less than 3 fold between the IC50 in the HAP1 MTAP-intact cell line and the HAP1 MTAP-deleted cell line)”. Moreover, the “SAM/MTA Ratio” value on PRMT5 [3] (setting [5]) was “A (a Ki ratio greater than or equal to 10 fold between the Ki in the presence of SAM and the Ki in the presence of MTA)”.

With `O=C(NC[C@H](O)CN1CCc2cc(OCc3cnco3)ccc2C1)c1cc(NC2CCC2)ncc1Cl` [Compound 284, 5-chloro-2-(cyclobutylamino)-N-[(2S)-2-hydroxy-3-[6-(oxazol-5-ylmethoxy)-3N-dihydro-1H-isoquinolin-2-yl]propyl]pyridine-4-carboxamide], the IC50 in the assay on HAP1 MTAP-intact is less than 1000 nM; on PRMT5 [1] (read-out: No Co-factor IC50) it was no less than 5000 nM; in the assay with HAP1 MTAP-deleted it was less than 1000 nM; at PRMT5 [2], 500 to 5000 nM; at PRMT5 [3], 50 to 500 nM. In addition, the “MTAP Intact/Deleted Ratio” value in the assay with HAP1 MTAP-deleted was “C* (an IC50 ratio of less than 3 fold between the IC50 in the HAP1 MTAP-intact cell line and the HAP1 MTAP-deleted cell line)”. The “SAM/MTA Ratio” value at PRMT5 [3] (setting [5]) is “A (a Ki ratio greater than or equal to 10 fold between the Ki in the presence of SAM and the Ki in the presence of MTA)”.

For the compound `CC(=O)N1CCC(Nc2cc(C(=O)NC[C@H](O)CN3CCc4cc(OCc5cnnn5C)ccc4C3)ncn2)CC1` [Compound 250, (S)-6-((1-acetylpiperidin-4-yl)amino)-N-(2-hydroxy-3-(6-((1-methyl-1H-1,2,3-triazol-5-yl)methoxy)-3,4-dihydroisoquinolin-2(1H)-yl)propyl)pyrimidine-4-carboxamide], the 50% inhibitory concentration (IC50) in the assay with HAP1 MTAP-intact was no less than 10000 nM; at PRMT5 [1] (read-out: No Co-factor IC50) it was no less than 5000 nM; in the assay with HAP1 MTAP-deleted, no less than 10000 nM; on PRMT5 [2] it was 500 to 5000 nM; on PRMT5 [3], 500 to 5000 nM. The “MTAP Intact/Deleted Ratio” value in the assay on HAP1 MTAP-deleted is “C* (an IC50 ratio of less than 3 fold between the IC50 in the HAP1 MTAP-intact cell line and the HAP1 MTAP-deleted cell line)”. Also, at PRMT5 [3] (setting [5]), the “SAM/MTA Ratio” value is “A (a Ki ratio greater than or equal to 10 fold between the Ki in the presence of SAM and the Ki in the presence of MTA)”.

Turning to `CC(=O)N1CCC(Nc2cccc(C(=O)NC[C@H](O)CN3CCc4c(ccc(OCc5cnco5)c4C)C3)c2)CC1` [Compound 529, 3-[(1-acetylpiperidin-4-yl)amino]-N-[(2S)-2-hydroxy-3-{5-methyl-6-[(1,3-oxazol-5-yl)methoxy]-1,2,3,4-tetrahydroisoquinolin-2-yl}propyl]benzamide], the IC50 with HAP1 MTAP-intact is no less than 10000 nM; against PRMT5 [1], 500 to 5000 nM; with HAP1 MTAP-deleted, 1000 to 10000 nM; at PRMT5 [2], 50 to 500 nM; on PRMT5 [3] it was 50 to 500 nM. Also, the “MTAP Intact/Deleted Ratio” value in the assay on HAP1 MTAP-deleted was “B* (an IC50 ratio greater than or equal to 3 fold but lower than 10 fold between the IC50 in the HAP1 MTAP-intact cell line and the HAP1 MTAP-deleted cell line)”. Further, on PRMT5 [3] (setting [4]), the “SAM/MTA Ratio” value is “A (a Ki ratio greater than or equal to 10 fold between the Ki in the presence of SAM and the Ki in the presence of MTA)”.

For the compound `O=C(NC[C@H](O)CN1CCc2c(ccc(OCc3cnco3)c2Cl)C1)c1cc(NC2COC2)nc(N2CCOCC2)n1` [Compound 298, (S)—N-(3-(5-chloro-6-(oxazol-5-ylmethoxy)-3,4-dihydroisoquinolin-2(1H)-yl)-2-hydroxypropyl)-2-morpholino-6-(oxetan-3-ylamino)pyrimidine-4-carboxamide], the IC50 with HAP1 MTAP-intact was no less than 10000 nM; on PRMT5 [1] (read-out: No Co-factor IC50), no less than 5000 nM; with HAP1 MTAP-deleted it was 1000 to 10000 nM; at PRMT5 [2], 500 to 5000 nM; on PRMT5 [3] it was 500 to 5000 nM. Further, the “MTAP Intact/Deleted Ratio” value with HAP1 MTAP-deleted is “C* (an IC50 ratio of less than 3 fold between the IC50 in the HAP1 MTAP-intact cell line and the HAP1 MTAP-deleted cell line)”. At PRMT5 [3] (setting [5]), the “SAM/MTA Ratio” value is “A (a Ki ratio greater than or equal to 10 fold between the Ki in the presence of SAM and the Ki in the presence of MTA)”.

As for `O=C(NC[C@H](O)CN1CCc2c(ccc(OCc3cnco3)c2Cl)C1)c1ccnc(NC2CCC(F)(F)C2)c1` (stereo partly drawn) [Compound 316, N—((S)-3-(5-chloro-6-(oxazol-5-ylmethoxy)-3,4-dihydroisoquinolin-2(1H)-yl)-2-hydroxypropyl)-2-((3,3-difluorocyclopentyl)amino)isonicotinamide], the IC50 was no less than 10000 nM with HAP1 MTAP-intact; no less than 5000 nM on PRMT5 [1] (read-out: No Co-factor IC50); no less than 10000 nM with HAP1 MTAP-deleted; 50 to 500 nM on PRMT5 [2]; 50 to 500 nM on PRMT5 [3]. Also, the “MTAP Intact/Deleted Ratio” value with HAP1 MTAP-deleted was “C* (an IC50 ratio of less than 3 fold between the IC50 in the HAP1 MTAP-intact cell line and the HAP1 MTAP-deleted cell line)”. For the same compound, the “SAM/MTA Ratio” value at PRMT5 [3] (setting [5]) was “A (a Ki ratio greater than or equal to 10 fold between the Ki in the presence of SAM and the Ki in the presence of MTA)”.

Turning to `O=C(NC[C@H](O)CN1CCc2cc(OCc3cnco3)c(F)c(F)c2C1)c1ccnc(NC2CCC2)c1` [Compound 364, 2-(cyclobutylamino)-N-[(2S)-3-[7,8-difluoro-6-(oxazol-5-ylmethoxy)-3,4-dihydro-1H-isoquinolin-2-yl]-2-hydroxy-propyl]pyridine-4-carboxamide], the IC50 is no less than 10000 nM with HAP1 MTAP-intact; no less than 5000 nM at PRMT5 [1] (read-out: No Co-factor IC50); 1000 to 10000 nM with HAP1 MTAP-deleted; 50 to 500 nM on PRMT5 [2]; 50 to 500 nM at PRMT5 [3]. The “MTAP Intact/Deleted Ratio” value in the assay with HAP1 MTAP-deleted is “C* (an IC50 ratio of less than 3 fold between the IC50 in the HAP1 MTAP-intact cell line and the HAP1 MTAP-deleted cell line)”. Further, the “SAM/MTA Ratio” value at PRMT5 [3] (setting [5]) is “A (a Ki ratio greater than or equal to 10 fold between the Ki in the presence of SAM and the Ki in the presence of MTA)”.

`Cc1ncoc1COc1ccc2c(c1C)CCN(C[C@@H](O)CNC(=O)c1cc(NC3CCC3)ccn1)C2` [Compound 555, 4-(cyclobutylamino)-N-[(2S)-2-hydroxy-3-{5-methyl-6-[(4-methyl-1,3-oxazol-5-yl)methoxy]-1,2,3,4-tetrahydroisoquinolin-2-yl}propyl]pyridine-2-carboxamide]: the IC50 with HAP1 MTAP-intact was no less than 10000 nM; at PRMT5 [1], no less than 5000 nM; with HAP1 MTAP-deleted, 1000 to 10000 nM; on PRMT5 [2], 50 to 500 nM; on PRMT5 [3] it was 50 to 500 nM. For the same compound, the “MTAP Intact/Deleted Ratio” value in the assay with HAP1 MTAP-deleted was “C* (an IC50 ratio of less than 3 fold between the IC50 in the HAP1 MTAP-intact cell line and the HAP1 MTAP-deleted cell line)”. Moreover, the “SAM/MTA Ratio” value on PRMT5 [3] (setting [4]) was “A (a Ki ratio greater than or equal to 10 fold between the Ki in the presence of SAM and the Ki in the presence of MTA)”.
